# Experimental data from US20240309016A1, “MACROCYCLIC HETEROCYCLE COMPOUNDS AND USE THEREOF” (TAKEDA PHARMACEUTICAL COMPANY LIMITED, priority 2023, published 2024).
# Molecular target: T1, human OX2 receptor (Homo sapiens, UniProt O43614)
# T1 construct: expressed in transfected cells
# T1 sequence (O43614 1-444): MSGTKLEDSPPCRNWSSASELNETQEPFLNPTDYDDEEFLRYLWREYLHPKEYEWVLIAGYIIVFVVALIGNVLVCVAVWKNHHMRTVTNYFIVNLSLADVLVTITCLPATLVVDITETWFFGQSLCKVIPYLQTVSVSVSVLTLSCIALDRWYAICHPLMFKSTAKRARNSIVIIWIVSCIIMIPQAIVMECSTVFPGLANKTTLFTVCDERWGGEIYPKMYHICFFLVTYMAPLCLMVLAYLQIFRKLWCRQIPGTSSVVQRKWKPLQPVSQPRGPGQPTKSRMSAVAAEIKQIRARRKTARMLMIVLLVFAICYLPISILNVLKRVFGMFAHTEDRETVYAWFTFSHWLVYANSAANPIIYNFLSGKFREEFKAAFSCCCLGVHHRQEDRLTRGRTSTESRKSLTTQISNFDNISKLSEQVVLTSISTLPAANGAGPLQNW
# Test: Measurement of orexin type 2 receptor agonist activity (Experimental Example 2; Fluo-4 AM calcium fluorescence, FDSS μCELL)
# Format: cell-based
# Details: compound at 3 μM; CHO cells expressing human OX2 receptor; DMSO = 0%, 10 nM orexin A (human) = 100%
# Protocol: In order to obtain cell clones that stably express human orexin type 2 receptor, human orexin type 2 (residues 1-444, NCBI Reference Sequence: AK314279) was constructed in a pcDNA3.1 (+) vector (Invitrogen) to express in mammalian cells. This plasmid DNA was transfected into CHO-K1 cells by electroporation, and stable clones were obtained by limiting dilution using resistance to G418 as a selection marker.
# CHO cells in which human OX2 receptor was forcibly expressed were seeded at 10,000 cells/well into a 384-well black transparent bottom plate (BD falcon), and were incubated at 37° C., 5% CO2 for 1 day after incubation at room temperature for 30 minutes. After removing the cell plate medium, assay buffer containing calcium indicator A (HBSS (Thermo Fisher Scientific), 20 mM HEPES (Thermo Fisher Scientific), 0.1% BSA (Sigma-Aldrich), 2.5 μg/mL Fluo-4 AM (Dojin Kagaku), 0.08% Pluronic F127 (Dojin Kagaku), 1.25 mM probenecid (Dojin Kagaku)) was added at 30 μL/well. After incubation in a 5% CO2 incubator at 37° C. for 30 minutes, it was incubated at room temperature for another 30 minutes. Add 10 μL/well of the test compound diluted with assay buffer B (HBSS, 20 mM HEPES, 0.1% BSA), and use FDSS μCELL (Hamamatsu Photonics) to measure the fluorescence value every 1 second for 1 minute, and then every 2 seconds for 1 minute. It was measured for 1 minute and 40 seconds. The amount of fluorescence value when DMSO is added instead of the test compound is defined as 0%, and the amount of fluorescence value when orexin A (human) (Peptide Institute) with a final concentration of 10 nM is added is defined as 100%. The activity (%) of the test compound was calculated. Table 2-1, 2-2, 2-3, and 2-4 show the activity of each compound at a concentration of 3 μM.
row,"OX2R agonist activity (3 μM, %) [%]",Compound
1,96,"CCS(=O)(=O)N[C@H]1[C@@H](F)CN2C(=O)COc3ccc(Br)c(n3)Oc3cccc(c3)C[C@@H]12 [Example 76, N-[(15aS,16R,17S)-7-bromo-17-fluoro-1-oxo-1,2,15a,16,17,18-hexahydro-15H-4,8-(azeno)-14,10-(metheno)pyrrolo[1,2-d][1,12,4]dioxazacyclo-heptadecin-16-yl]ethanesulfonamide]"
2,99,"CS(=O)(=O)N[C@H]1CCN2C(=O)NCc3ccc(Cl)c(n3)Oc3cccc(c3)C[C@@H]12 [Example 16, N-[(15aS,16S)-7-chloro-1-oxo-2,3,15a,16,17,18-hexahydro-1H,15H-4,8-(azeno)-10,14-(metheno)pyrrolo[1,2-j][1,8,10]oxadiazacyclo-heptadecin-16-yl]methanesulfonamide]"
3,103,"Cc1ccc2nc1Oc1cccc(c1)C[C@H]1[C@@H](NS(C)(=O)=O)CCN1C(=O)N(C)C2 [Example 40, N-[(15aS,16S)-2,7-dimethyl-1-oxo-2,3,15a,16,17,18-hexahydro-1H,15H-4,8-(azeno)-10,14-(metheno)pyrrolo[1,2-j][1,8,10]oxadiazacyclo-heptadecin-16-yl]methanesulfonamide]"
4,103,"CCS(=O)(=O)N[C@H]1[C@@H](F)CN2C(=O)N(C)Cc3ccc(Cl)c(n3)Oc3cccc(c3)C[C@@H]12 [Example 70, N-[(15aS,16R,17S)-7-chloro-17-fluoro-2-methyl-1-oxo-2,3,15a,16,17,18-hexahydro-1H,15H-4,8-(azeno)-10,14-(metheno)pyrrolo[1,2-j][1,8,10]oxadiazacyclo-heptadecin-16-yl]ethanesulfonamide]"
5,107,"CS(=O)(=O)N[C@@H]1[C@@H]2Cc3cccc(c3)Oc3nc(ccc3Cl)OCC(=O)N2CC1(F)F [Example 96, N-[(15aS,16R)-7-chloro-17,17-difluoro-1-oxo-1,2,15a,16,17,18-hexahydro-15H-4,8-(azeno)-14,10-(metheno)pyrrolo[1,2-d][1,12,4]dioxazacyclo-heptadecin-16-yl]methanesulfonamide]"
6,104,"CCS(=O)(=O)N[C@H]1[C@@H](F)CN2C(=O)COc3ccc(Cl)c(n3)Cc3cccc(c3F)C[C@@H]12 [Example 72, N-[(15aS,16R,17S)-7-chloro-17,20-difluoro-1-oxo-1,2,15a,16,17,18-hexahydro-9H,15H-4,8-(azeno)-14,10-(metheno)pyrrolo[1,2-d][1,4]oxazacycloheptadecin-16-yl]ethanesulfonamide]"

# Continued, molecule first:
row,Compound,"OX2R agonist activity (3 μM, %) [%]"
1,"CCS(=O)(=O)N[C@@H]1[C@@H]2Cc3cccc(c3F)Oc3nc(ccc3C)C(C)NC(=O)N2CC1(F)F (stereo partly drawn) [Example 49, N-[(15aS,16R)-17,17,20-trifluoro-3,7-dimethyl-1-oxo-2,3,15a,16,17,18-hexahydro-1H,15H-4,8-(azeno)-14,10-(metheno)pyrrolo[1,2-j][1,8,10]oxadiazacyclo-heptadecin-16-yl]ethanesulfonamide (optical isomer)]",97
2,"CS(=O)(=O)N[C@@H]1[C@@H]2Cc3cccc(c3F)Oc3nc(c(F)cc3Cl)CNC(=O)N2CC1(F)F [Example 30, N-[(15aS,16R)-7-chloro-5,17,17,20-tetrafluoro-1-oxo-2,3,15a,16,17,18-hexahydro-1H,15H-4,8-(azeno)-14,10-(metheno)pyrrolo[1,2-j][1,8,10]oxadiazacyclo-heptadecin-16-yl]methanesulfonamide]",102
3,"CN(C)S(=O)(=O)N[C@@H]1[C@@H]2Cc3cccc(c3F)Oc3nc(ccc3Cl)CNC(=O)N2CC1(F)F [Example 13, N′-[(15aS,16R)-7-chloro-17,17,20-trifluoro-1-oxo-2,3,15a,16,17,18-hexahydro-1H,15H-4,8-(azeno)-14,10-(metheno)pyrrolo[1,2-j][1,8,10]oxadiazacyclo-heptadecin-16-yl]-N,N-dimethylsulfuric diamide]",99
4,"CS(=O)(=O)N[C@H]1[C@@H](F)CN2C(=O)OCc3ccc(C(F)F)c(n3)Oc3cccc(c3F)C[C@@H]12 [Example 38, N-[(15aS,16R,17S)-7-(difluoromethyl)-17,20-difluoro-1-oxo-15a,16,17,18-tetrahydro-1H,3H,15H-8,4-(azeno)-10,14-(metheno)pyrrolo[1,2-c][1,11,3]dioxazacyclo-heptadecin-16-yl]methanesulfonamide]",80
5,"CCS(=O)(=O)N[C@@H]1[C@@H]2Cc3cc(F)cc(c3)Oc3nc(ccc3C)CNC(=O)N2CC1(F)F (relative stereo) [Example 89, N-[rel-(15aS,16R)-12,17,17-trifluoro-7-methyl-1-oxo-2,3,15a,16,17,18-hexahydro-1H,15H-4,8-(azeno)-14,10-(metheno)pyrrolo[1,2-j][1,8,10]oxadiazacyclo-heptadecin-16-yl]ethanesulfonamide (optical isomer)]",114
6,"Cc1ccc2nc1Oc1cc(ccc1F)C[C@H]1[C@@H](NS(C)(=O)=O)CCN1C(=O)NC2 (relative stereo) [Example 9, N-[rel-(15aR,16R)-11-fluoro-7-methyl-1-oxo-2,3,15a,16,17,18-hexahydro-1H,15H-4,8-(azeno)-10,14-(metheno)pyrrolo[1,2-j][1,8,10]oxadiazacyclo-heptadecin-16-yl]methanesulfonamide (optical isomer)]",93
7,"CS(=O)(=O)N[C@@H]1[C@@H]2Cc3cccc(c3F)Oc3nc(ccc3Cl)CN(CC(F)F)C(=O)N2CC1(F)F [Example 60, N-[(15aS,16R)-7-chloro-2-(2,2-difluoroethyl)-17,17,20-trifluoro-1-oxo-2,3,15a,16,17,18-hexahydro-1H,15H-4,8-(azeno)-14,10-(metheno)pyrrolo[1,2-j][1,8,10]oxadiazacyclo-heptadecin-16-yl]methanesulfonamide]",104
8,"CS(=O)(=O)N[C@@H]1[C@@H]2Cc3cccc(c3F)Oc3nc(ccc3Cl)OCC(=O)N2CC1(F)F [Example 62, N-[(15aS,16R)-7-chloro-17,17,20-trifluoro-1-oxo-1,2,15a,16,17,18-hexahydro-15H-4,8-(azeno)-14,10-(metheno)pyrrolo[1,2-d][1,12,4]dioxazacyclo-heptadecin-16-yl]methanesulfonamide]",102
9,"CNS(=O)(=O)N[C@@H]1[C@@H]2Cc3cccc(c3F)Oc3nc(ccc3Cl)OCC(=O)N2CC1(F)F [Example 63, N-[(15aS,16R)-7-chloro-17,17,20-trifluoro-1-oxo-1,2,15a,16,17,18-hexahydro-15H-4,8-(azeno)-10,14-(metheno)pyrrolo[1,2-d][1,12,4]dioxazacyclo-heptadecin-16-yl]-N′-methylsulfuric diamide]",106
10,"CS(=O)(=O)N[C@@H]1[C@@H]2Cc3cccc(c3)Oc3nc(ccc3C(F)F)CNC(=O)N2CC1(F)F [Example 93, N-[(15aS,16R)-7-(difluoromethyl)-17,17-difluoro-1-oxo-2,3,15a,16,17,18-hexahydro-1H,15H-4,8-(azeno)-14,10-(metheno)pyrrolo[1,2-j][1,8,10]oxadiazacyclohepta-decin-16-yl]methanesulfonamide]",109
11,"CS(=O)(=O)N[C@@H]1[C@@H]2Cc3cccc(c3F)Oc3nc(ccc3C(F)F)CNC(=O)N2CC1(F)F [Example 41, N-[(15aS,16R)-7-(difluoromethyl)-17,17,20-trifluoro-1-oxo-2,3,15a,16,17,18-hexahydro-1H,15H-8,4-(azeno)-10,14-(metheno)pyrrolo[1,2-j][1,8,10]oxadiazacyclo-heptadecin-16-yl]methanesulfonamide]",107
12,"CS(=O)(=O)N[C@H]1[C@@H](F)CN2C(=O)NCc3cc(c(Cl)cn3)Oc3cccc(c3F)C[C@@H]12 [Example 44, N-[(15aS,16R,17S)-7-chloro-17,20-difluoro-1-oxo-2,3,15a,16,17,18-hexahydro-1H,15H-4,8:14,10-di(metheno)pyrrolo[1,2-j][1,5,8,10]oxatriazacyclo-heptadecin-16-yl]methanesulfonamide]",84
